Measurements reported in patent US20190276475A1, “CRYSTAL AND SALT OF NITROIMIDAZOLE, AND MANUFACTURING METHOD THEREOF” (priority 2016, published 2019).

Legend:
physchem [1] = conditions: 22 °C, pH 2, aqueous buffer, kinetic from dmso stock
Procedure: The test compound and the control compound (10 mM DMSO mother liquor, 10 μL per well) were added to a 96-well plate containing 490 μL buffer per well. After 2 minutes of vortexing, the sample plate were incubated for 24 hours at room temperature (22±2° C.) on a shaker. 200 μL sample was then transferred to a Multi Screen filter plate (polycarbonate membrane), filtered through a millipore vacuum manifold and the filtrate was collected. The concentration of the compound in the filtrate was determined by HPLC-UV. Three UV standard solution of different concentrations and the solubility test sample were injected successively. Each sample was inserted twice, and the concentration was calculated by standard curve line and averaged.

[2] = Stability test in different solvents for the crystal form A; conditions: stirred at 40° C. for 2 days
Procedure: The mixture was stirred at 40° C. for 2 days, and then centrifuged. The solid in all samples was collected, dried in a vacuum oven (40° C.) overnight, and was tested for crystal form by XRPD.

[3] = Solid stability test under high temperature and high humidity conditions
Source text: The samples placed under different conditions were sampled and tested on the 5th day and 10th day, and the test results were compared with the initial test results of 0 days.

physchem [4] = conditions: thermodynamic from solid, Solubility (mg/mL)
Procedure: The solubility test was carried out by using a manual stepwise dilution method under normal temperature conditions while observing the dissolution. About 2 mg of the crystal form C of the compound represented by formula (I) was added into different vials used in the liquid phase, and then an organic solvent or solvent mixture was added in small portions to observe the dissolution of the compound.

[5] = system: Mycobacterium tuberculosis Erdman, ATCC 35801; experiment: In vivo efficacy in mouse model of chronic infection; conditions: mice, whole lung, day 32 to 59 after infection, counted day 60
M. bovis ATCC35737 = assay type: cell-based
M. tuberculosis H37Rv = experiment: In vitro MIC against M. tuberculosis H37Rv, MABA; assay type: cell-based
M. tuberculosis H37R = experiment: In vitro MIC against M. tuberculosis H37Rv, LORA; assay type: cell-based; conditions: Mycobacterium tuberculosis, read-out: M. tuberculosis H37R LORA (MIC) (μg/mL)
MDR1-MDCK cells = experiment: Bidirectional permeability in MDR1-MDCK cells; assay type: in vitro ADME; conditions: conclusion
Procedure: MDR1-MDCK cells permanently expressing human P-glycoprotein were inoculated in a 96-well Insert cell plate and cultured for 4-7 days to form convergent monolayer cells.
After the incubation, the sample solutions in the donor wells and receiver wells were immediately mixed with cold acetonitrile solution containing an internal standard. The amount of the intracellular accumulated compound was measured by lysing the cells with the cold acetonitrile solution containing an internal standard. The concentration of the test compound in all samples (including the starting dosing solution, the supernatant in the donor wells, the receiving solution, and the cell lysate) was analyzed by LC/MS/MS method. The concentration of the test compound was expressed by the ratio of the peak area of the compound to the peak area of the internal standard.
The standard conditions for the transport experiment of the compound represented by formula (I) were as follows:
Test concentration: 2 (DMSO≤1%);
Direction: bidirectional transport, including A→B and B→A these two directions;
Inoculated time: single time, 2.5 hours;
Buffer for transport: HBSS, pH 7.4;
Inoculated condition: 37° C., 5% CO2, 95% relative humidity.

Vero Cell = experiment: Vero cell cytotoxicity
[6] = high temperature (60° C., open), 5th day
[7] = high temperature (60° C., open), 10th day

Compound: C[C@]1(CN2Cc3nc(-c4ccc(F)cc4)sc3C2)Cn2cc([N+](=O)[O-])nc2O1.O=S(=O)(O)c1ccccc1
- solubility kinetic at 24 h (physchem [1]): 32.2 µM
- Appearance (2 days) ([2]; acetonitrile-water (1:1)): suspension
- Result (crystal form by XRPD) ([2]; acetonitrile-water (1:1)): crystal form A
- Appearance (2 days) ([2]; acetonitrile): suspension
- Result (crystal form by XRPD) ([2]; acetonitrile): crystal form A
- Appearance (2 days) ([2]; ethanol-water (1:1)): suspension
- Result (crystal form by XRPD) ([2]; ethanol-water (1:1)): crystal form A
- Appearance (2 days) ([2]; ethanol): suspension
- Result (crystal form by XRPD) ([2]; ethanol): crystal form A
- Appearance (2 days) ([2]; ethyl acetate): suspension
- Result (crystal form by XRPD) ([2]; ethyl acetate): crystal form A
- Appearance (2 days) ([2]; isopropanol-water (1:1)): suspension
- Result (crystal form by XRPD) ([2]; isopropanol-water (1:1)): crystal form A
- Appearance (2 days) ([2]; isopropanol): suspension
- Result (crystal form by XRPD) ([2]; isopropanol): crystal form A
- Appearance ([3]; 0 day): grey powder
- Total impurity (%) ([3]; 0 day): 1.32%
- XRPD ([3]; 0 day): crystal
- Appearance ([3]; […], open), 5th day): grey powder
- Total impurity (%) ([3]; […], open), 5th day): 1.32%
- XRPD ([3]; […], open), 5th day): crystal
- Total impurity (%) ([3]; […], open), 10th day): 1.60%
- XRPD ([3]; […], open), 10th day): crystal
- Appearance [3, 6]: grey powder
- Total impurity (%) [3, 6]: 1.49%
- XRPD [3, 6]: crystal
- Total impurity (%) [3, 7]: 1.86%
- XRPD [3, 7]: crystal

Compound: C[C@]1(CN2Cc3nc(-c4ccc(F)cc4)sc3C2)Cn2cc([N+](=O)[O-])nc2O1
- solubility (physchem [4]; aqueous with cosolvent or surfactant or cyclodextrin): < 2000 µg/mL
- solubility (physchem [4]; water): < 2000 µg/mL

Compound: C[C@]1(COc2ccc(N3CCC(Oc4ccc(OC(F)(F)F)cc4)CC3)cc2)Cn2cc([N+](=O)[O-])nc2O1 [OPC-67683, Delamanid, reference compound]
- Log value reduced ([5]; 100 mg/kg oral): 0.9
- Number of colony ([5]; 100 mg/kg oral): 2.3E+05

Compound: CO[C@H]1/C=C/O[C@@]2(C)Oc3c(C)c(O)c4c(O)c(c(/C=N/N5CCN(C)CC5)c(O)c4c3C2=O)NC(=O)/C(C)=C\C=C\[C@H](C)[C@H](O)[C@@H](C)[C@@H](O)[C@@H](C)[C@H](OC(C)=O)[C@@H]1C [Rifampin, reference compound]
- Log value reduced ([5]; 15 mg/kg oral): 2.2
- Number of colony ([5]; 15 mg/kg oral): 1.2E+04

Compound: NC(=O)c1cnccn1 [pyrazinamide, reference compound]
- Log value reduced ([5]; 150 mg/kg oral): 1.2
- Number of colony ([5]; 150 mg/kg oral): 1.2E+05

Compound: C[C@]1(CN2Cc3nc(-c4ccc(F)cc4)sc3C2)Cn2cc([N+](=O)[O-])nc2O1 [the compound represented by formula (I)]
- M. bovis ATCC35737 (M. bovis ATCC35737; MIC, BCG strain, Alamar Blue): <1 µg/mL
- inhibitory activity against M. bovis BCG strain (in words) (M. bovis ATCC35737; conclusion): good inhibitory activity
- MIC (M. tuberculosis H37Rv; Mycobacterium tuberculosis, H37RV): < 1 µg/mL
- inhibitory activity against M. tuberculosis H37Rv strain (in words) (M. tuberculosis H37Rv; conclusion): good inhibitory activity
- MIC (M. tuberculosis H37R): 1 to 32 µg/mL
- permeability compared to the reference compound OPC-67683 (in words) (MDR1-MDCK cells): better permeability
- IC50 (Vero Cell; Chlorocebus sabaeus, Vero, read-out: Vero Cell (IC50) (μg/mL)): > 32 µg/mL
- cytotoxicity (in words) (Vero Cell; conclusion): without cytotoxicity

Compound: C[C@]1(CN2Cc3nc(-c4ccc(F)cc4)sc3C2)Cn2cc([N+](=O)[O-])nc2O1.O=S(=O)(O)c1ccccc1 [the compound represented by formula (II)]
- Log value reduced ([5]; 10 mg/kg oral): 0.9
- Number of colony ([5]; 10 mg/kg oral): 2.7E+05
- Log value reduced ([5]; 30 mg/kg oral): 1.3
- Number of colony ([5]; 30 mg/kg oral): 1.0E+05
- Log value reduced ([5]; 100 mg/kg oral): 1.7
- Number of colony ([5]; 100 mg/kg oral): 4.1E+04
